Results taken from patent EP4678638A1, “NEW E3 UBIQUITIN LIGASE LIGAND, PROTEIN DEGRADATION AGENT AND USE THEREOF” (priority 2023, dated 2024).
Read-outs that look alike come from different tables or passages of the source.

Assays:
SR = test: CCK-8 proliferation, SR; type: cell-based, Human; details: Homo sapiens
Procedure, shortened: (§1)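 Tumor cells were cultured at 37°C with 5% CO2, seeded, and after 24h treated with compounds at 10 concentrations starting at 10µM (5-fold serial dilutions).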

[1] = molecular target: T1, human Cereblon WT GST-tagged protein (Homo sapiens, UniProt Q96SW2); test: CRBN binding, HTRF (CEREBLON BINDING kit); details: Table II-2, CRBN binding screening, HTRF; for inhibition at 0.5 µM: read-out: Inhibition rate (%) at 0.5µM; for inhibition at 2 µM: read-out: Inhibition rate (%) at 2 µM
T1 construct: purchased CISBIO 64BDCRBNPEH
T1 sequence (Q96SW2 whole entry): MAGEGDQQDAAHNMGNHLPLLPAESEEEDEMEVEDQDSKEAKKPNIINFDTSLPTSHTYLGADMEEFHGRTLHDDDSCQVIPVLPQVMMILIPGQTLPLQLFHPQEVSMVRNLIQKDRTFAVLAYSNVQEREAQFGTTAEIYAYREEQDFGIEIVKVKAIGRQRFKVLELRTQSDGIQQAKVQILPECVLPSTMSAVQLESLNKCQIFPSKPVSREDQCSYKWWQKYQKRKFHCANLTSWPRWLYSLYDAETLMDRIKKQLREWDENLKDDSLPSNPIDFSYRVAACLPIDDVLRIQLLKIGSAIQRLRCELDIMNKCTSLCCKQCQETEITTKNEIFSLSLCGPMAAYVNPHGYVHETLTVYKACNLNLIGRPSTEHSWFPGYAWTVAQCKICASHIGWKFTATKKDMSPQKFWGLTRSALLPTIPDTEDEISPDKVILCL
Procedure, shortened: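 After 3 h at room temperature, emission at 665 and 620 nm was measured in a homogeneous time-resolved fluorescence format. Compounds competed with a Thalidomide-Re probe for GST-tagged wild-type human CRBN, which was labelled with a Eu anti-GST antibody.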

SW620 = test: CCK-8 proliferation, SW620; type: cell-based; details: Homo sapiens, SW-620; CCK-8; 96 hours; read-out: Inhibitory activity (IC50) on tumor cell proliferation, SW620
Description: (§2) The tumor cells used herein were cultured in a cell culture medium listed in table A1 at 37°C in an incubator with 5% CO2. Prior to experimentation, all cell lines used were correctly identified by STR profiling, and tested negative for mycoplasma contamination using a mycoplasma detection kit through routine screenings. Table A1. Tumor cells and cell culture medium used in the present disclosure
(§3) IC50 values of the compounds of the present disclosure (including the compounds in Table 1, and compounds of examples) were measured using the Meilun Cell Counting Kit-8 kit from Dalian Meilun Biotech Co., Ltd. Assay details are as follows: tumor cells were seeded in a 96-well plate at a density listed in Table A2. After 24h, 100 µL of the inoculated cells were treated with 0.5µL of the compounds of the present disclosure (including the compounds in Tables 1 and 2, and compounds of examples) at 10 different successively decreasing concentrations (starting at the highest concentration of 10µM; 5-fold serial dilutions). After the cells were treated with the compounds of the present disclosure for a period of time, the cell viability detection reagent was added to the culture medium for cell viability assessment according to the instructions provided with the CCK-8 kit. […] The growth inhibition of the compounds of the present disclosure on cells was plotted by Prism Graphpad software, and the IC50 values of the compounds of the present disclosure were calculated therefrom. […] Seeding protocol and treatment time for tumor cells

H1975 = test: CCK-8 proliferation, NCI-H1975 (H1975); type: cell-based, Human; details: Homo sapiens, NCI-H1975; CCK-8; 96 hours; read-out: Inhibitory activity (IC50) on tumor cell proliferation, H1975
Procedure, shortened: as §1

MV-4-11 = test: CCK-8 proliferation, MV-4-11; type: cell-based, Human; details: Homo sapiens, MV4-11; CCK-8; 72 or 96 hours; read-out: Inhibitory activity (IC50) on tumor cell proliferation, MV-4-11
Description: as §2, §3

FAK = molecular target: T2, FAK (Homo sapiens, UniProt Q05397); test: Western blot degradation of FAK; type: cell-based; details: Table D7
T2 construct: evaluate the effects of the compounds of the present disclosure on the expression of target proteins in cells; endogenous in cells
T2 sequence (Q05397 whole entry, species assumed): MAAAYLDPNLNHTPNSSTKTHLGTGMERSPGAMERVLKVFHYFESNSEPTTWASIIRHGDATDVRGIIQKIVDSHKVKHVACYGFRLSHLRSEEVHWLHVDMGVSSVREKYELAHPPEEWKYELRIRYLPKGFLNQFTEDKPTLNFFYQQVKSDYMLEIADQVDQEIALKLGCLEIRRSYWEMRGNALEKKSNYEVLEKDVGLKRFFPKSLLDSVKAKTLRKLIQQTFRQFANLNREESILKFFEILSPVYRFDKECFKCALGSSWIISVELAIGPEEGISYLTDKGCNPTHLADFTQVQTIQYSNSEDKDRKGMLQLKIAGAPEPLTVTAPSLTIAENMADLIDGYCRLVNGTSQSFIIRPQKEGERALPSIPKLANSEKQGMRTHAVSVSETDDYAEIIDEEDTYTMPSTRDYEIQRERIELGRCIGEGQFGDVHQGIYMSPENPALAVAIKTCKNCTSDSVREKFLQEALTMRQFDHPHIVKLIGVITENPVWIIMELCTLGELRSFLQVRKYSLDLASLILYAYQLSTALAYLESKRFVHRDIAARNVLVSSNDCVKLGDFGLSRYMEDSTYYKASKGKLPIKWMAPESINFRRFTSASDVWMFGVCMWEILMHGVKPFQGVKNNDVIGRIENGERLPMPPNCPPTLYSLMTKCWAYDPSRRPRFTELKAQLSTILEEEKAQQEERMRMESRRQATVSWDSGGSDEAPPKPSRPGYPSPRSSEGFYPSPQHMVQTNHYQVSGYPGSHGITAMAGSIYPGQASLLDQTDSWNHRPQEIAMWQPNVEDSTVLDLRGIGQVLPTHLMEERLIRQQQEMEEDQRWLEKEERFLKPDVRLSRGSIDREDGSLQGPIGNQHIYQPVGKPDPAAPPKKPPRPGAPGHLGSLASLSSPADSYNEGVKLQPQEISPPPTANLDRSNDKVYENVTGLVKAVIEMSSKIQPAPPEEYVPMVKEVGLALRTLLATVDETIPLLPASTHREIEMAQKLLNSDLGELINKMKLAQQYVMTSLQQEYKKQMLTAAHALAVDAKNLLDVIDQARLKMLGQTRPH
Description: Conventional Western blot assay was performed to evaluate the effects of the compounds of the present disclosure on the expression of target proteins in cells.
(1) Cell Seeding and Protein Harvesting: The selected cells were processed according to the cell seeding procedure and protein harvesting procedure in Table III-2. Table III-2 Cell Seeding and Protein Harvesting Procedures
(2) To the collected supernatant, 5X SDS sample loading buffer was added, followed by denaturation at 95°C for 5 minutes. The denatured samples were then separated by SDS-PAGE electrophoresis on a polyacrylamide gel. Proteins were transferred to a nitrocellulose membrane (0.45 µm NC membrane), blocked with blocking buffer at room temperature for 1 hour, and subjected to antibody incubation and development procedures according to the antibody manufacturer's instructions (Cell Signaling Technology).
Half-Maximal Degradation Concentration value (the drug concentration required for degrading proteins by 50%, abbreviated as DC50) reads method: comparing the grayscale values of Western blot bands from drug-treated samples with those from blank DMSO-treated controls, and identifying the drug concentration range at which the grayscale value is half that of the DMSO-treated control bands.
DC50 values can be calculated using ImageJ software to measure grayscale values of Western blot bands from drug-treated samples. The concentration-response curve is fitted to estimate the drug concentration corresponding to half the grayscale value.
Target protein remaining (%) refers to the percentage of target protein remaining in hPBMC cells after treatment with protein degrader compounds.
Calculation method for target protein remaining (%): Use ImageJ software to measure grayscale values of Western blot bands from drug (protein degrader)-treated samples. The grayscale value of drug-treated bands is divided by that of internal control protein bands, and the resulting quotient is normalized to obtain the relative percentage of remaining target protein after protein degrader treatment.
Target protein degradation rate (%) = 100% - target protein remaining (%).

MDA-MB-231 = test: CCK-8 proliferation, MDA-MB-231; type: cell-based; details: Homo sapiens; Table B6, compounds designed based on the ALK inhibitors; MDA-MB-231 cells; read-out: Inhibitory activity (IC50, nM) on tumor cell proliferation, MDA-MB-231
Description: as §2, §3

H2228 = test: CCK-8 proliferation, NCI-H2228 (H2228); type: cell-based; details: Homo sapiens, NCI-H2228
Procedure, shortened: as §1

CCRF-CEM = test: CCK-8 proliferation, CCRF-CEM; type: cell-based, Human; details: Homo sapiens, CCRF-CEM; CCK-8; 96 hours; read-out: Inhibitory activity (IC50) on tumor cell proliferation, CCRF-CEM
Procedure, shortened: as §1

PC-9 = test: CCK-8 proliferation, PC-9; type: cell-based, Human; details: Homo sapiens, PC-9; CCK-8; 96 hours; read-out: Inhibitory activity (IC50) on tumor cell proliferation, PC-9
Description: as §2, §3

MCF7 = test: CCK-8 proliferation, MCF7 (MCF-7); type: cell-based; details: Homo sapiens, MCF7; Table B6, compounds designed based on the ALK inhibitors; MCF-7 cells; read-out: Inhibitory activity (IC50, nM) on tumor cell proliferation, MCF-7
Procedure, shortened: as §1

Jurkat = test: CCK-8 proliferation, Jurkat; type: cell-based, Human; details: Homo sapiens, Jurkat; CCK-8; 96 hours; read-out: Inhibitory activity (IC50) on tumor cell proliferation, Jurkat
Description: as §2, §3

[2] = SR, CCK-8, 72 hours, read-out: Inhibitory activity (IC50) on tumor cell proliferation, SR
[3] = Table B6, compounds designed based on the ALK inhibitors, SR cells, read-out: Inhibitory activity (IC50, nM) on tumor cell proliferation, SR
[4] = Table B6, compounds designed based on the ALK inhibitors, H2228 cells, read-out: Inhibitory activity (IC50, nM) on tumor cell proliferation, H2228

inhibition at 0.5 µM [1]	inhibition at 2 µM [1]	IC50 (SW620)	SMILES	Degradation of substrate protein FAK (substrate protein remaining %) (FAK)	further results
30 to 40%	40 to 53%	500 to 1000 nM	CNC(=O)c1ccccc1Nc1cc(Nc2ccc(N3CCN(Cc4ccc(C5CCC(=O)NC5=O)c(F)c4)CC3)cc2OC)ncc1C(F)(F)F (stereo not shown) [GT-03717, 2-((2-((4-(4-(4-(2,6-dioxopiperidin-3-yl)-3-fluorobenzyl)piperazin-1-yl)-2-methoxyphenyl)amino)-5-(trifluoromethyl)pyridin-4-yl)amino)-N-methylbenzamide]	A (A is defined as 0% ≤ substrate protein remaining % ≤ 80%)	IC50 (SR; [2]): 100 to 500 nM; IC50 (H1975): 500 to 1000 nM; IC50 (MV-4-11): 100 to 500 nM
–	–	–	COc1cc(N2CCN(Cc3ccc(C4CCC(=O)NC4=O)cn3)CC2)ccc1Nc1ncc(Cl)c(Nc2ccccc2P(C)(C)=O)n1 (stereo not shown) [GT-07713, 3-(6-((4-(4-((5-chloro-4-((2-(dimethylphosphoryl)phenyl)amino)pyrimidin-2-yl)amino)-3-methoxyphenyl)piperazin-1-yl)methyl)pyridin-3-yl)piperidine-2,6-dione]	–	IC50 (SR; [3]): 10 to 50 nM; IC50 (MDA-MB-231): 500 to 1000 nM; IC50 (H2228; [4]): 100 to 500 nM
53 to 60%	80 to 100%	–	COc1cc(C(=O)NC2CCN(Cc3ccc(C4CCC(=O)NC4=O)cc3)CC2)c(F)cc1Nc1ncc(C(F)(F)F)c(Oc2cccc3c2C(=O)N(C)C3)n1 (stereo not shown) [GT-04034, N-(1-(4-(2,6-dioxopiperidin-3-yl)benzyl)piperidin-4-yl)-2-fluoro-5-methoxy-4-((4-((2-methyl-3-oxoisoindolin-4-yl)oxy)-5-(trifluoromethyl)pyrimidin-2-yl)amino)benzamide]	A (A is defined as 0% ≤ substrate protein remaining % ≤ 80%)	–
10 to 20%	60 to 80%	500 to 1000 nM	CNC(=O)c1ccccc1Nc1cc(Nc2ccc(N3CCN(Cc4ccc(C5CCC(=O)NC5=O)cc4)CC3)cc2OC)ncc1C(F)(F)F (stereo not shown) [GT-03715, 2-((2-((4-(4-(4-(2,6-dioxopiperidin-3-yl)benzyl)piperazin-1-yl)-2-methoxyphenyl)amino)-5-(trifluoromethyl)pyridin-4-yl)amino)-N-methylbenzamide]	A (A is defined as 0% ≤ substrate protein remaining % ≤ 80%)	IC50 (CCRF-CEM): 500 to 1000 nM; IC50 (SR; [2]): 100 to 500 nM; IC50 (MV-4-11): 100 to 500 nM
–	–	500 to 1000 nM	NC(=O)c1ncc(N2CCCCC2)nc1Nc1ccc(C2CCN(Cc3ccc(N4CCC(=O)NC4=O)cc3F)CC2)cc1 [GT-04790, 3-((4-(1-(4-(2,4-dioxotetrahydropyrimidin-1(2H)-yl)-2-fluorobenzyl)piperidin-4-yl)phenyl)amino)-5-(piperidin-1-yl)pyrazine-2-carboxamide]	–	IC50 (PC-9): 100 to 500 nM; IC50 (H1975): 500 to 1000 nM; IC50 (H2228; CCK-8, 96 hours, read-out: Inhibitory activity (IC50) on tumor cell proliferation, H2228): 100 to 500 nM
–	–	–	CCc1cc2c(cc1N1CCC(N3CCN(Cc4cc(C5CCC(=O)NC5=O)cnc4F)CC3)CC1)C(C)(C)c1[nH]c3cc(C#N)ccc3c1C2=O (stereo not shown) [GT-07703, 8-(4-(4-((5-(2,6-dioxopiperidin-3-yl)-2-fluoropyridin-3-yl)methyl)piperazin-1-yl)piperidin-1-yl)-9-ethyl-6,6-dimethyl-11-oxo-6,11-dihydro-5H-benzo[b]carbazole-3-carbonitrile]	–	IC50 (SR; [3]): 1 to 10 nM; IC50 (MDA-MB-231): 500 to 1000 nM; IC50 (H2228; [4]): 50 to 100 nM; IC50 (MCF7): 500 to 1000 nM
30 to 40%	53 to 60%	–	CNC(=O)c1ccccc1Nc1cc(Nc2cc(C)c(N3CCN(Cc4ccc(C5CCC(=O)NC5=O)cc4)CC3)cc2OC(C)C)ncc1C(F)(F)F (stereo not shown) [GT-03946, 2-((2-((4-(4-(4-(2,6-dioxopiperidin-3-yl)benzyl)piperazin-1-yl)-2-isopropoxy-5-methylphenyl)amino)-5-(trifluoromethyl)pyridin-4-yl)amino)-N-methylbenzamide]	A (A is defined as 0% ≤ substrate protein remaining % ≤ 80%)	–
40 to 53%	80 to 100%	–	COc1cc(C(=O)NC2CCN(Cc3ccc(C4CCC(=O)NC4=O)c(F)c3)CC2)c(F)cc1Nc1ncc(C(F)(F)F)c(Oc2cccc3c2C(=O)N(C)C3)n1 (stereo not shown) [GT-04035, N-(1-(4-(2,6-dioxopiperidin-3-yl)-3-fluorobenzyl)piperidin-4-yl)-2-fluoro-5-methoxy-4-((4-((2-methyl-3-oxoisoindolin-4-yl)oxy)-5-(trifluoromethyl)pyrimidin-2-yl)amino)benzamide]	A (A is defined as 0% ≤ substrate protein remaining % ≤ 80%)	IC50 (Jurkat): 50 to 100 nM
20 to 30%	60 to 80%	–	CNC(=O)c1ccccc1Nc1cc(Nc2cc(C)c(N3CCC(N(C)Cc4ccc(C5CCC(=O)NC5=O)c(F)c4)CC3)cc2OC(C)C)ncc1C(F)(F)F (stereo not shown) [GT-04095, 2-((2-((4-(4-((4-(2,6-dioxopiperidin-3-yl)-3-fluorobenzyl)(methyl)amino)piperidin-1-yl)-2-isopropoxy-5-methylphenyl)amino)-5-(trifluoromethyl)pyridin-4-yl)amino)-N-methylbenzamide]	A (A is defined as 0% ≤ substrate protein remaining % ≤ 80%)	–
–	–	–	CNC(=O)c1ccccc1Nc1cc(Nc2ccc(N3CCC(N4CCN(Cc5ccc(C6CCC(=O)NC6=O)cc5)CC4)CC3)cc2OC)ncc1C(F)(F)F (stereo not shown) [GT-03599, 2-((2-((4-(4-(4-(4-(2,6-dioxopiperidin-3-yl)benzyl)piperazin-1-yl)piperidin-1-yl)-2-methoxyphenyl)amino)-5-(trifluoromethyl)pyridin-4-yl)amino)-N-methylbenzamide]	A (A is defined as 0% ≤ substrate protein remaining % ≤ 80%)	IC50 (CCRF-CEM): 100 to 500 nM
